Laboratory results published in patent publication US20260248788A1, “NEW COMPOUNDS AND TREATMENT OF RENAL CELL CARCINOMA” (TRUSTLIFE THERAPEUTICS INC., priority 2023, published 2026).
Entries after “also recorded” stand apart in the source; their conditions may differ.

How the values were obtained:
Assay type in all cases: cell-based, human
Caki-1 cells [1] = assay: Cell morphology (DIC images) of treated Caki-1 cells; conditions: Caki-1, 10 μM, 1 day; for effect on the cell morphology: DIC images (FIG. 52)
Excerpt: The effect of treatment of Caki-1 cells with the target compounds was further evaluated by monitoring the cell morphology of treated cells, see FIG. 52.

BUB1B = assay: Western blot of BUB1B in Caki-1 cells treated with TG-101209 derivatives; conditions: for expression levels of BUB1B (Western blot): Caki-1 cells, 5 μM of target drug, 1 day (FIG. 41, 56); for expression levels of BUB1B (summary statement): concentration not given
Description: (§1) Cell culture 2: Caki-1 was purchased from CLS Cell Lines Service (Germany). The cells were maintained in McCoy's 5A (modified) medium (16600082, Thermo Fisher Scientific, USA) and supplemented with 10% fetal bovine serum (FBS, F7524, Sigma-Aldrich), 1% Penicillin/Streptomycin (P4333, Sigma-Aldrich).
The target drugs developed as alternatives to TG-101209, were dissolved in 0.1% DMSO (41639, Sigma-Aldrich). Caki-1 cells from cell culture 2 were seeded in a 6-well plate at 3×10^5 cells per well. […]
The cells were washed with PBS solution and then lysed with CelLytic M (C2978, Sigma-Aldrich) lysis buffer containing protease inhibitors (11836170001, Roche). The cell lysates were centrifuged at 12 000 rpm for 10 min and supernatants were collected. Protein Assay Dye Reagent (5000006, Bio-Rad) was used for the determination of protein concentration. The absorbance of the proteins was measured spectrophotometrically at 595 nm by a microplate reader (Hidex Sense Beta Plus). Protein electrophoresis was performed using Mini-PROTEAN® TGX™ Precast Gels (4561086, Bio-Rad) and then the separated proteins were transferred to a Trans-Blot Turbo Mini 0.2 μm PVDF Transfer Packs membrane (1704158, Bio-Rad) by using Trans-Blot® Turbo™ Transfer System (Bio-Rad). The membrane was blocked with 5% skim milk for 30 min at 4° C. with gentle rocking. After blocking, the membrane was treated with primary antibodies: Anti-BUB1B (HPA008419, Human Protein Atlas, Sweden) and Anti-Beta actin (ab8227, Abcam) as a loading control overnight at 4° C. on a rocking platform. After the treatment of primary antibodies, the membrane was washed three times with TBS-T buffer (A09-7500-100, Medicago). Then, Goat anti-Rabbit IgG-HRP (ab205718, Abcam) was treated as the secondary antibody for 30 min at 4° C. with gentle rocking.

Caki-1 cells [2] = assay: LDH cytotoxicity assay; conditions: for cytotoxic effect and dose dependence: Caki-1, 10 nM-30 μM; for cytotoxicity (LDH assay): Caki-1, 10 μM; for cytotoxicity (LDH assay) / Ranking, Cytotoxicity (%): 1 day; for Ranking, Cytotoxicity (%): top five, LDH assay, 10 μM, rank 1 = highest; for cytotoxicity according to LDH assay (conclusion): Caki-1; for cytotoxicity according to LDH assay (conclusion) / cytotoxicity (summary statement): concentration not given; for cell death / toxicity (LDH): Caki-1, 10 and 30 μM
Description: as §1
Lactate dehydrogenase (LDH) assay was performed with LDH Assay Kit (ab65393). […] 20 μl of media was analysed with LDH Assay Kit as per manufacturer's instruction.

Caki-1 cells [3] = assay: MTT cell viability assay; conditions: for change of IC50 values after 2 days compared to 1 day treatment: Caki-1 (FIG. 53-54); for reduction in cell viability (MTT) / effect on cell viability (MTT): 1 day; for cell viability over the treatment period (MTT): 27 h, 48 h and 72 h (FIG. 55); for IC50 values compared with TG-101209: Caki-1, 1 and 2 days (FIG. 53-54); for cell viability of treated cells (summary statement) / reduction in cell viability according to MTT assay (conclusion): concentration not given; for reduction in cell viability according to MTT assay (conclusion): Caki-1
Description: as §1
The cytotoxic effects of the TG-101209 and its alternatives on the Caki-1 cells were tested by MTT (Thiazolyl Blue Tetrazolium Bromide) method. 1.5×10^4 cells were seeded per well in a 96-well plate in 100 μL growth media. […] After the incubation period, 5 mg/ml MTT (M2128, Sigma-Aldrich) solution in PBS (10 μL) was added to each well. After 1 hour, the MTT solution and all media were removed from the wells. 100 μl of DMSO was added and mixed to dissolve the formazan crystals. Cell viability was analysed by measuring the absorbance of the dissolved formazan at a wavelength of 570 nm with a microplate reader (Hidex Sense Beta Plus).

Structure (SMILES)	mechanism according to morphology evaluation (Caki-1 cells [1])	effect on the cell morphology (Caki-1 cells [1])	expression levels of BUB1B (Western blot) (BUB1B)	expression levels of BUB1B (summary statement) (BUB1B)	cytotoxic effect and dose dependence (Caki-1 cells [2])	cytotoxicity (LDH assay) (Caki-1 cells [2]; first batch)	Ranking, Cytotoxicity (%) (Caki-1 cells [2])	change of IC50 values after 2 days compared to 1 day treatment (Caki-1 cells [3])	reduction in cell viability (MTT) (Caki-1 cells [3]; Caki-1, 5 μM, first batch)	effect on cell viability (MTT) (Caki-1 cells [3]; Caki-1, 10 μM, first batch)	cell viability over the treatment period (MTT) (Caki-1 cells [3]; Caki-1, 10 μM)	IC50 values compared with TG-101209 (Caki-1 cells [3])	cell viability of treated cells (summary statement) (Caki-1 cells [3])	cytotoxicity according to LDH assay (conclusion) (Caki-1 cells [2])	reduction in cell viability (MTT) (Caki-1 cells [3]; Caki-1, 10 μM, second batch)	IC50 value after treatment for 1 day (Caki-1 cells [3]; Caki-1, doses 10 nM to 30 μM (FIG. 53))	reduction in cell viability according to MTT assay (conclusion) (Caki-1 cells [3])	cytotoxicity (LDH assay) (Caki-1 cells [2]; second batch)	cell death / toxicity (LDH) (Caki-1 cells [2])	cytotoxicity (summary statement) (Caki-1 cells [2])
Cc1cnc(Nc2ccc(N3CCN(C)CC3)cc2)nc1Nc1cccc(S(=O)(=O)NC2CCC2)c1 [Compound M5, N-cyclobutyl-3-((5-methyl-2-((4-(4-methylpiperazin-1-yl)phenyl)amino)pyrimidin-4-yl)amino)benzenesulfonamide]	cell growth inhibition mechanism	distinct effect on the cell morphology	significantly lower the expression levels of BUB1B	reduction of the expression levels of BUB1B	dose dependent toxicity	highest cytotoxicity	2	largest decrease	the greatest	greatest reduction of cell viability	larger decrease in cell viability than TG-101209	better IC50 values than TG-101209	especially low cell viability; also recorded: particularly low cell viability							
Cc1ccc(Nc2ncc(C)c(Nc3cccc(S(=O)(=O)NC(C)(C)C)c3)n2)cc1S(N)(=O)=O [Compound M66, N-(tert-butyl)-3-((5-methyl-2-((4-methyl-3-sulfamoylphenyl)amino)pyrimidin-4-yl)amino)benzenesulfonamide]			significantly lower the expression levels of BUB1B	reduction of the expression levels of BUB1B		exhibited cytotoxicity	4		the greatest	most profound effect			particularly low cell viability; also recorded: significantly reduced cell viability							
COc1cc(Nc2ncc(C)c(Nc3cccc(S(=O)(=O)NC(C)(C)C)c3)n2)cc(OC)c1OC [Compound M76, N-(tert-butyl)-3-((5-methyl-2-((3,4,5-trimethoxyphenyl)amino)pyrimidin-4-yl)amino)benzenesulfonamide]	cell growth inhibition mechanism	distinct effect on the cell morphology	ability to lower the expression levels of BUB1B	reduction of the expression levels of BUB1B	dose dependent toxicity			largest decrease			larger decrease in cell viability than TG-101209	better IC50 values than TG-101209	especially low cell viability; also recorded: significantly reduced cell viability	greatest cytotoxicity	the greatest	lowest IC50 value	greatest reduction in cell viability			
Cc1cnc(Nc2ccc(C(=O)Nc3ccc(N4CCN(C)CC4)cc3)cc2)nc1Nc1cccc(S(=O)(=O)NC(C)(C)C)c1 [Compound M101N, 4-((4-((3-(N-(tert-butyl)sulfamoyl)phenyl)amino)-5-methylpyrimidin-2-yl)amino)-N-(4-(4-methylpiperazin-1-yl)phenyl)benzamide]	work as cytotoxic agents	distinct effect on the cell morphology	did not affect the expression levels of BUB1B								larger decrease in cell viability than TG-101209		particularly low cell viability; also recorded: significantly reduced cell viability	greatest cytotoxicity	the greatest		greatest reduction in cell viability	greatest cytotoxicity	strong toxicity	high cytotoxicity
Cc1cnc(Nc2ccc(C(=O)Nc3ccc(OCCN4CCCC4)cc3)cc2)nc1Nc1cccc(S(=O)(=O)NC(C)(C)C)c1 [Compound M101P, 4-((4-((3-(N-(tert-butyl)sulfamoyl)phenyl)amino)-5-methylpyrimidin-2-yl)amino)-N-(4-(2-(pyrrolidin-1-yl)ethoxy)phenyl)benzamide]	work as cytotoxic agents	distinct effect on the cell morphology	ability to lower the expression levels of BUB1B								larger decrease in cell viability than TG-101209		particularly low cell viability; also recorded: significantly reduced cell viability	greatest cytotoxicity	the greatest		greatest reduction in cell viability	greatest cytotoxicity	strong toxicity	high cytotoxicity
COc1cc(Nc2ncc(C)c(Nc3cccc(S(=O)(=O)NC4CCC4)c3)n2)cc(OC)c1OC [Compound M120, N-cyclobutyl-3-((5-methyl-2-((3,4,5-trimethoxyphenyl)amino)pyrimidin-4-yl)amino)benzenesulfonamide]				reduction of the expression levels of BUB1B									especially low cell viability; also recorded: particularly low cell viability; also recorded: significantly reduced cell viability		the greatest					
Cc1ccc(Nc2ncc(C)c(Nc3ccc(N4CCN(C)CC4)cc3)n2)cc1S(N)(=O)=O [Compound M123, 2-methyl-5-((5-methyl-4-((4-(4-methylpiperazin-1-yl)phenyl)amino)pyrimidin-2-yl)amino)benzenesulfonamide]				reduction of the expression levels of BUB1B									particularly low cell viability; also recorded: significantly reduced cell viability							
